We go through three compounds from patent US20050014824A1, “Pigment” (priority 2001, published 2005).

One data set relates to salmonid fishes. The note with it: cited from earlier work.
Data set [1] deals with enzymes from salmon intestines. In words: hydrolysis of astaxanthin omega-3 fatty acid diester by enzyme mixture from salmon intestines, optical isomer distribution by HPLC of dicamphanates. Format: in vitro ADME, Salmo salar. The protocol: As described in Example 1 below, hydrolysis experiments were performed with a diester of synthetic astaxanthin with omega-3 fatty acids and a crude enzyme preparation from salmon intestines in the same way as described before (NO-309386). The reaction products were analysed with regard to stereoisomer composition.
A diester of astaxanthin was prepared by conventional chemical synthesis from commercially obtained synthetic astaxanthin and an omega-3 fatty acid concentrate containing more than 90% omega-3 fatty acids, mainly EPA (eicosapentaenoic acid) and DHA (docosahexaenoic acid). The astaxanthin used had been prepared by chemical synthesis, and the distribution of the optical isomers (3R,3′R), meso and (3S,3′S) was 25.9:50.2:23.9, respectively, determined as described for the diol fraction.
The starting astaxanthin diester was treated with a freshly prepared enzyme mixture from the intestines of recently fed salmon (Salmo salar) for 48 hours. The pigment was then separated into three fractions by preparative thin-layer chromatography; a diol fraction with both hydroxyl groups hydrolysed, a monoester fraction with one hydroxyl group hydrolysed, and a remaining diester fraction. The astaxanthin in the diol fraction was converted into the corresponding diesters of (−)-camphanic acid by reaction with (−)-camphanoyl chloride, and the distribution of astaxanthin optical isomers were determined by high-performance liquid chromatography (HPLC) of the dicamphanates. The astaxanthin in the monoester fraction was first converted to diol in a hydrolysis reaction catalysed by the enzyme cholesterol esterase and subsequently treated with (−)-camphanic acid and analysed as described above. Attempts to convert the astaxanthin in the remaining diester fraction to diol using cholesterol esterase were not successful, as complete conversion was not obtained. The distribution of optical isomers of astaxanthin in the remaining diester fraction was therefore not determined.

[2] abbreviates: pigment fraction, enzyme treatment 48 hours, starting diester = before treatment.

With `CCCCCCCCCCCCCCCC(=O)O[C@H]1CC(C)(C)C(/C=C/C(C)=C/C=C/C(C)=C/C=C/C=C(C)/C=C/C=C(C)/C=C/C2=C(C)C(=O)[C@@H](OC(=O)CCCCCCCCCCCCCCC)CC2(C)C)=C(C)C1=O` [dipalmitate, of (3R,3′R)-astaxanthin], in the data set on salmonid fishes (diet containing the ester form, compared with dipalmitate of (3S,3′S)-astaxanthin), the utilisation by salmonids result is recorded as “better than dipalmitate of (3S,3′S)-astaxanthin”.

Regarding `CC1=C(/C=C/C(C)=C/C=C/C(C)=C/C=C/C=C(C)/C=C/C=C(C)/C=C/C2=C(C)C(=O)[C@@H](O)CC2(C)C)C(C)(C)C[C@H](O)C1=O` [astaxanthin], the “absorption and deposition in the flesh of the optical isomers” value in the data set with salmonid fishes (in vivo) was “equally well absorbed and deposited”. Turning to `CC1=C(/C=C/C(C)=C/C=C/C(C)=C/C=C/C=C(C)/C=C/C=C(C)/C=C/C2=C(C)C(=O)[C@@H](O)CC2(C)C)C(C)(C)C[C@H](O)C1=O` [Diol (after enzyme treatment)], the “predominant optical isomer of astaxanthin in the fraction (in words)” value in data set [1] (after enzyme treatment) was “almost exclusively the (3R,3′R)-configuration, with traces of the meso-form”. Besides, in data set [1] (setting [2]), the “distribution of astaxanthin optical isomers: (3R,3′R)” value came out at 94.6 and the “distribution of astaxanthin optical isomers: meso” value turned out to be 5.4.
